Measurements reported in ChEMBL document CHEMBL1146061, “Novel, potent P2-P3 pyrrolidine derivatives of ketoamide-based cathepsin K inhibitors” (Bioorg Med Chem Lett, 2006).
Values after ≈ are worked out from the molar mass of the structure shown.

How the values were obtained:
Cathepsin K = molecular target: T1, Cathepsin K (Homo sapiens, UniProt P43235); experiment: Inhibition of recombinant human cathepsin K by fluorescence assay
T1 sequence (P43235 whole entry): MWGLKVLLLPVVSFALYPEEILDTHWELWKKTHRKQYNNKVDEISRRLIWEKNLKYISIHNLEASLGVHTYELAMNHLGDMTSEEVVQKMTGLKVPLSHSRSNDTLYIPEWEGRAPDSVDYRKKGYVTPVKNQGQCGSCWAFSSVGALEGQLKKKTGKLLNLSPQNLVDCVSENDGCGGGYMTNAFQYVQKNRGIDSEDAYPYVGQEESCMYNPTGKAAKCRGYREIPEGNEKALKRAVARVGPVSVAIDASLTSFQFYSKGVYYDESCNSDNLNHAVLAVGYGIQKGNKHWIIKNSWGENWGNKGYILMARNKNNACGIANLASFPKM

[1] = Oral bioavailability in Han Wistar rat; assay type: ADME, organism-based; conditions: in vivo
[2] = Permeability in MDCK cell line; assay type: ADME, cell-based, Canis lupus familiaris; conditions: dog
[3] = Volume of distribution in Han Wistar rat; assay type: ADME, organism-based; conditions: in vivo, read-out: Vss
[4] = Clearance in Han Wistar rat; assay type: ADME, organism-based; conditions: in vivo
[5] = Half life in Han Wistar rat iv; assay type: ADME, organism-based; conditions: in vivo
[6] = Solubility in fasted state-simulated intestinal fluid at pH 6.8; assay type: physicochemical

| Compound | IC50 (Cathepsin K) | bioavailability [1] | Papp [2] | Vd [3] | clearance [4] | half-life [5] | solubility [6] |
| --- | --- | --- | --- | --- | --- | --- | --- |
| CCCC[C@H](NC(=O)O[C@@H]1C(=O)N(C(=O)c2cc3ccccc3s2)CC1(C)C)C(=O)C(=O)N[C@H](C)c1ccccc1 | 2.8 nM | – | – | – | – | – | – |
| CCCC[C@H](NC(=O)O[C@@H]1C(=O)N(C(=O)c2cccnc2)CC1(C)C)C(=O)C(=O)N[C@H](C)c1ccccc1 | 14 nM | 45% | 21 ×10⁻⁶ cm/s | 0.55 L/kg | 34 mL/min/kg | 1.57 h | 85 µg/mL (≈ 163 µM) |
| CCCC[C@H](NC(=O)O[C@@H]1C(=O)N(S(=O)(=O)Cc2ccccc2)CC1(C)C)C(=O)C(=O)N[C@H](C)c1ccccc1 | 17 nM | – | – | – | – | – | – |
| CCCC[C@H](NC(=O)O[C@@H]1C(=O)N(Cc2ccccc2)CC1(C)C)C(=O)C(=O)N[C@H](C)c1ccccc1 | 21 nM | – | – | – | – | – | – |
| CCCC[C@H](NC(=O)O[C@@H]1C(=O)N(C(=O)Cc2ccccc2)CC1(C)C)C(=O)C(=O)N[C@H](C)c1ccccc1 | 3 nM | 29% | 41 ×10⁻⁶ cm/s | 1.5 L/kg | 26 mL/min/kg | 1.05 h | 68 µg/mL (≈ 127 µM) |
| CCCC[C@H](NC(=O)O[C@@H]1C(=O)N(C(=O)Oc2ccc3ccccc3c2)CC1(C)C)C(=O)C(=O)N[C@H](C)c1ccccc1 | 58 nM | – | – | – | – | – | – |
| CCCC[C@H](NC(=O)O[C@@H]1C(=O)N(C(=O)Oc2ccc(-c3ccccc3)cc2)CC1(C)C)C(=O)C(=O)N[C@H](C)c1ccccc1 | 5 nM | – | – | – | – | – | – |
| CCCC[C@H](NC(=O)O[C@@H]1C(=O)N(C(=O)N2CCOCC2)CC1(C)C)C(=O)C(=O)N[C@H](C)c1ccccc1 | 16 nM | – | – | – | – | – | – |
| CCCC[C@H](NC(=O)O[C@@H]1C(=O)N(C(=O)c2nc3ccccc3s2)CC1(C)C)C(=O)C(=O)Nc1ccn[nH]1 | 0.81 nM | 14% | 25 ×10⁻⁶ cm/s | 2.2 L/kg | 65 mL/min/kg | 3 h | 160 µg/mL (≈ 296 µM) |
| CCCC[C@H](NC(=O)O[C@@H]1C(=O)N(C(=O)Oc2ccccc2)CC1(C)C)C(=O)C(=O)N[C@H](C)c1ccccc1 | 29 nM | – | – | – | – | – | – |
| CCCC[C@H](NC(=O)O[C@@H]1C(=O)N(C(=O)c2ccc(-c3ccccc3)cc2)CC1(C)C)C(=O)C(=O)N[C@H](C)c1ccccc1 | 6.9 nM | – | – | – | – | – | – |
| CCCC[C@H](NC(=O)O[C@@H]1C(=O)N(C(=O)Nc2c(C)noc2C)CC1(C)C)C(=O)C(=O)N[C@H](C)c1ccccc1 | 15 nM | 8.8% | 1.2 ×10⁻⁶ cm/s | 1.4 L/kg | 83 mL/min/kg | 0.583 h | 320 µg/mL (≈ 576 µM) |
| CCCC[C@H](NC(=O)O[C@@H]1C(=O)N(C(=O)CCCc2ccccc2)CC1(C)C)C(=O)C(=O)N[C@H](C)c1ccccc1 | 27 nM | – | – | – | – | – | – |
| CCCC[C@H](NC(=O)O[C@@H]1C(=O)N(C(=O)c2nnc(C(F)(F)F)s2)CC1(C)C)C(=O)C(=O)Nc1cc[nH]n1 | 1 nM | 13% | 12 ×10⁻⁶ cm/s | 3.3 L/kg | 79 mL/min/kg | 1.35 h | – |
| CCCC[C@H](NC(=O)O[C@@H]1C(=O)N(C(=O)OCc2ccccc2)CC1(C)C)C(=O)C(=O)N[C@H](C)c1ccccc1 | 24 nM | – | – | – | – | – | – |
| CCCC[C@H](NC(=O)O[C@@H]1C(=O)N(C(=O)OCCc2ccccc2)CC1(C)C)C(=O)C(=O)N[C@H](C)c1ccccc1 | 32 nM | – | – | – | – | – | – |
| CCCC[C@H](NC(=O)O[C@@H]1C(=O)N(C(=O)c2ccc3[nH]ccc3c2)CC1(C)C)C(=O)C(=O)N[C@H](C)c1ccccc1 | 1.7 nM | – | – | – | – | – | – |
| CCCC[C@H](NC(=O)O[C@@H]1C(=O)N(C(=O)OCc2ccc(-c3ccccc3)cc2)CC1(C)C)C(=O)C(=O)N[C@H](C)c1ccccc1 | 2.1 nM | – | – | – | – | – | – |
| CCCC[C@H](NC(=O)O[C@@H]1C(=O)N(S(=O)(=O)c2ccccc2)CC1(C)C)C(=O)C(=O)N[C@H](C)c1ccccc1 | 8.3 nM | 25% | – | 2.1 L/kg | 27 mL/min/kg | 2.5 h | – |

Other lines, results leading:

| IC50 (Cathepsin K) | bioavailability [1] | Papp [2] | Vd [3] | clearance [4] | half-life [5] | solubility [6] | Compound |
| --- | --- | --- | --- | --- | --- | --- | --- |
| 0.42 nM | 26% | 1.8 ×10⁻⁶ cm/s | 2.6 L/kg | 77 mL/min/kg | 1.25 h | 140 µg/mL (≈ 247 µM) | CCCC[C@H](NC(=O)O[C@@H]1C(=O)N(C(=O)Nc2ccc(C(F)(F)F)cc2)CC1(C)C)C(=O)C(=O)Nc1cc[nH]n1 |
| 1.6 nM | – | – | – | – | – | – | CCCC[C@H](NC(=O)O[C@@H]1C(=O)N(C(=O)c2ccc3ccccc3c2)CC1(C)C)C(=O)C(=O)N[C@H](C)c1ccccc1 |
| 65 nM | – | – | – | – | – | – | CCCC[C@H](NC(=O)O[C@@H]1C(=O)N(C(=O)c2ccccc2)CC1(C)C)C(=O)C(=O)N[C@H](C)c1ccccc1 |
| 4.3 nM | – | – | – | – | – | – | CCCC[C@H](NC(=O)O[C@@H]1C(=O)N(C(=O)Nc2ccccc2)CC1(C)C)C(=O)C(=O)N[C@H](C)c1ccccc1 |
| 2.1 nM | – | – | – | – | – | – | CCCC[C@H](NC(=O)O[C@@H]1C(=O)N(C(=O)Nc2ccc(C(F)(F)F)cc2)CC1(C)C)C(=O)C(=O)N[C@H](C)c1ccccc1 |
| 6.6 nM | – | – | – | – | – | – | CCCC[C@H](NC(=O)O[C@@H]1C(=O)N(C(=O)NCCc2ccccc2)CC1(C)C)C(=O)C(=O)N[C@H](C)c1ccccc1 |
| 3.8 nM | 21% | 21 ×10⁻⁶ cm/s | 1.4 L/kg | 32 mL/min/kg | 1.02 h | 53 µg/mL (≈ 96.2 µM) | CCCC[C@H](NC(=O)O[C@@H]1C(=O)N(C(=O)NCc2ccccc2)CC1(C)C)C(=O)C(=O)N[C@H](C)c1ccccc1 |
| 8.9 nM | 8.6% | 48 ×10⁻⁶ cm/s | 0.5 L/kg | 18 mL/min/kg | 0.6 h | 68 µg/mL (≈ 133 µM) | CCCC[C@H](NC(=O)O[C@@H]1C(=O)N(C(=O)c2ccno2)CC1(C)C)C(=O)C(=O)N[C@H](C)c1ccccc1 |
